# Measurements as given in paper PMC7297381, “Potent, specific MEPicides for treatment of zoonotic staphylococci” (PLoS Pathogens, 2020).
# Like-named read-outs stand apart in the source and are kept apart here.
# B1: S. schleiferi DXR enzyme (Staphylococcus schleiferi) (protein)
# chain: MKNIAILGASGSIGQQAIDVIARHPESFNLISFTVGKNIEFAIEVIEKFKPEIVSVQDEADVERLKPYHSNIVSGRQGLIDVSTYEKNDLVLNALLGSVGLEPTMKAIEAGKNIALANKETLVVAGKLVMTHAKRYGVDILPVDSEHAAIFQCLNGEDMHKIKNVTITASGGSFRELTREQLEHVTVGDALNHPNWSMGNKITIDSATMMNKGFEVIEAKWLFDLKIDQIKTILHKESIIHSLVEFVDTSVMAQLGTPDMRMPIQYAFTYPERIEHRAPSLDLVQVAQLHFQEMDLDRYRCLKFAYDALRIGGSMPVVLNAVNEVAVAKFLNHEITFLEIEHMIEREMSAHEVIPDPSLEEILEIDHYYKTKSYEV
# Tests used:
# S. schleiferi DXR enzyme = S. schleiferi DXR enzyme (Staphylococcus schleiferi, UniProt A0ABF7SXB4); assay: S. schleiferi DXR enzyme activity and inhibition (NADPH oxidation at 340 nm); type: biochemical
# Description: (§1) . The sequence was confirmed by Sanger sequencing and the plasmid was transformed into E. coli BL21(DE3) pLysS (Life Technologies). Gene expression was induced for 2 h with 1 mM isopropyl-β-D-thiogalactoside (IPTG) and cells were harvested by centrifugation at 4274 x g for 10 min at 4°C. The cell pellet was lysed by sonication in lysis buffer containing 25 mM Tris HCl (pH 7.5), 100 mM NaCl, 20 mM imidazole, 10% glycerol, 1 mM MgCl2, 1 mM dithiothreitol (DTT), 1 mg/mL lysozyme, 75 U benzonase and 1 Complete Mini EDTA-free protease inhibitor tablet (Roche Applied Science). The hexahistidine-tagged DXR protein was affinity purified from soluble lysate via nickel agarose beads (Gold Biotechnology). Bound protein was eluted in 300 mM imidazole, 25 mM Tris HCl (pH 7.5), 1 mM MgCl2 and 100 mM NaCl. Purified protein was dialyzed in buffer containing 10% glycerol without imidazole prior to analysis. The enzyme was frozen in liquid nitrogen and stored permanently at -80°C.
# Oxidation of NADPH to NADP^+ as a result of substrate turnover was monitored at 340 nm in a POLARstar Omega microplate reader (BMG Labtech)[73]. […] Reactions were initiated by the addition of DOXP after 15 min incubation of the reaction mixture without DOXP at 37°C. Absorption at 340 nm was measured continuously for up to 45 min. For Km [DOXP] determination, DOXP concentrations between 0 and 2 mM were tested at 0.5 mM NADPH. The linear range of enzyme activity was determined by varying the DXR concentration at 1 mM DOXP and 1 mM NADPH. IC50 assays were performed using the standard reaction conditions with the respective amount of DXR inhibitor added to obtain the given final concentrations. Data points from at least three independent replicates were analyzed by nonlinear regression using GraphPad Prism software. Slopes of changing absorbance values were converted to (μM DOXP)(mg enzyme)^-1 s ^-1 using a NADPH standard curve (data not shown). For the determination of the inhibitory constant Ki [FSM] of DXR, enzyme activity over a range of DOXP substrate concentrations between 0 and 2 mM was measured for FSM between 0 mM to 4 mM. Data points from at least three independent replicates were analyzed as described above.
# Escherichia coli = assay: microbe, parasite or virus in culture; type: cell-based; settings: for IC50: Escherichia coli, BW25113, mean ± SD
# Klebsiella pneumoniae = assay: Growth inhibition assay for Gram-negative bacteria; type: cell-based; settings: for IC50: Klebsiella pneumoniae, ATCC43816, ATCC 43816, mean ± SD
# Salmonella typhimurium = assay: Growth inhibition assay for Gram-negative bacteria; type: cell-based; settings: Salmonella enterica, strain 04-018-0254, mean ± SD
# Shigella sonnei = assay: microbe, parasite or virus in culture; type: cell-based; settings: mean ± SD
# Serratia marcescens = assay: Growth inhibition assay for Gram-negative bacteria; type: cell-based; settings: strain 137.01, mean ± SD
# [1] = system: Burkholderia thailandensis; assay: microbe, parasite or virus in culture; type: cell-based; settings: read-out: Burkholderia thailandensis IC50
# S. schleiferi [2] = assay: Minimum bactericidal (MBC) assay, CFU after 24 h; settings: 1 x and 10 x IC50, 24 h, CFU/mL
# Description: (§2) Overnight cultures were diluted 1:200 in LB media and grown at 37°C until reaching mid-logarithmic phase of growth. […] Cultures were serially diluted in 1 X Dulbecco’s Phosphate Buffered Saline (PBS; Gibco) and plated on LB agar. Colonies were enumerated after overnight growth at 37°C. Values reflect the mean and standard deviations of at least three independent experiments.
# (§3) Growth in CFU/mL of S. schleiferi and S. pseudintermedius after 24 h treatment is plotted against the respective treatment. Cultures were treated at 1 x IC50 concentration and/or 10x IC50 concentration of the inhibitors. Shown are the mean values + SD from at least three independent experiments.
# S. pseudintermedius [3] = assay: Minimum bactericidal (MBC) assay, CFU after 24 h; settings: 1 x and 10 x IC50, 24 h, CFU/mL
# Description: as §2, §3
# MEP pathway [4] = assay: Targeted LC-MS/MS profiling of MEP pathway intermediates; settings: FSM at 10x IC50, 2 h, vs untreated
# Description: (§4) MEP pathway metabolites were compared between untreated (UNT) S. schleiferi (A) and S. pseudintermedius (B) and bacteria treated with FSM at 10x the respective IC50 values. After 2 h treatment, bacterial cells were harvested and the cell pellets analyzed by LC-MS/MS. […] P-values were determined using a Student’s t-test.
# (§5) Overnight cultures of Staphylococcus spp. were diluted 1:200 in LB media and grown at 37°C until reaching mid-logarithmic phase. Cultures were then treated for 2 h with FSM at 10x their IC50 while shaking at 37°C. For normalization, the OD600 was determined after 2 h of treatment with the DXR inhibitors. Cells were pelleted by centrifugation for 5 min at 3000 x g at 4°C. The supernatants were removed and cells were washed twice with 1 x PBS (Gibco). The supernatants were removed and the pellets stored at -80°C until analysis. MEP intermediates were extracted from the samples using glass beads (212–300 u) and 600 μL chilled H2O: chloroform: methanol (3:5:12 v/v) spiked with PIPES (piperazine-N,N′-bis(2-ethanesulfonic acid) as internal standard. The cells were disrupted with the TissueLyser II instrument (Qiagen) using a microcentrifuge tube adaptor set pre-chilled for 2 min at 20 Hz. The samples were then centrifuged at 16,000 x g at 4°C for 10 min, the supernatants collected, and pellet extraction repeated once more. The supernatants were pooled and 300 μL chloroform and 450 μL of chilled water were added to the supernatants. The tubes were vortexed and centrifuged. The upper layer was transferred to a 2 mL tube PVDF filter (ThermoFisher, F2520-5) and centrifuged for 5 min at 4,000 x g at 4°C. The samples were transferred to new tubes and dried using a speed-vac. […]
# (§6) For LC separation, Luna-NH2 column (3 μm, 150 x 2 mm, Phenomenex) was used flowing at 0.4 mL/min. […] The metabolites were detected using MRM transitions that were previously optimized using standards. […] For quantification, an external standard curve was prepared using a series of standard samples containing different concentrations of metabolites and a fixed concentration of the internal standard. […]
# MEP pathway [5] = assay: as above; settings: FSM at 10x IC50, 2 h, vs untreated; remark: listed apart in the source
# Description: as §4, §5, §6
# S. schleiferi [6] = assay: Growth inhibition assay of Staphylococcus species (OD600, 20 h); settings: read-out: S. schleiferi IC50
# Description: (§7) Overnight cultures were diluted 1:200 in LB media and grown at 37°C until the mid-logarithmic phase (OD600 = 0.5–0.8). Cultures were diluted in a 96-well plate to 1 x 10^5 in 150 μL LB media and treated with inhibitors at concentrations ranging from 2 nM to 100 μM. Bacteria were grown at 37°C for 20 h with cyclic shaking at 700 rpm in a FLUOstar Omega microplate reader (BMG Labtech). Growth was assessed over 20 h by measuring the OD600 at 20 min increments. The half-maximal inhibitory concentration (IC50) values were determined during logarithmic growth using GraphPad Prism software. All experiments were performed at least in triplicate and data reported represent the mean ± SEM.
# S. pseudintermedius [7] = assay: as above; settings: read-out: S. pseudintermedius IC50
# Description: as §7
# S. aureus = assay: as above; settings: for IC50: Staphylococcus aureus, read-out: S. aureus IC50
# Description: as §7
# S. schleiferi [8] = assay: MIC by microtiter broth dilution, wild-type and FSM-resistant strains; settings: for sensitivity of FSM^R glpT mutant S. schleiferi strains (MIC fold change vs WT): strains 3408, 4494, 7376, 8400
# Description: (§8) Minimum Inhibitory Concentration (MIC) assays were conducted by microtiter broth dilution in clear 96-well plates[78]. MEPicides were serially diluted in duplicate at concentrations ranging from 1.5 mM– 19.5 nM in 75 μL of LB broth. Bacteria cultured without drug were used as a positive control for growth. The plates were inoculated with 75 μL bacteria diluted to 1 x 10^5 CFU/mL in LB. Plates were incubated for 18–20 h while shaking at 200 RPM at 37°C. The plates were then visually inspected, and the MIC value was defined as the lowest concentration of MEPicide that prevented visual growth.
# S. pseudintermedius [9] = assay: as above
# Description: as §8
# HepG2 cells = system: HepG2 cells; set-up: method as in PMID 28827774, PMID 30192536; settings: previous work ref [42], [53]; read-out: IC50 against HepG2 cells; cited from earlier work
# [10] = substrate: CC(=O)[C@@H](O)[C@H](O)COP(=O)(O)O; assay: S. schleiferi DXR enzyme activity and inhibition (NADPH oxidation at 340 nm); type: biochemical; settings: other: 0.5 mM NADPH; pH 7.5; 37.0 °C
# Description: as §1, with “Bound protein was eluted in 300 mM imidazole, 25 mM Tris HCl (pH 7.5), 1 mM MgCl2 and 100 mM NaCl. Purified protein was dialyzed in buffer containing 10% glycerol without imidazole prior to analysis. The enzyme was frozen in liquid nitrogen and stored permanently at -80°C.” left out
# Oxidation of NADPH to NADP^+ as a result of substrate turnover was monitored at 340 nm in a POLARstar Omega microplate reader (BMG Labtech)[73]. […] Absorption at 340 nm was measured continuously for up to 45 min. […] The linear range of enzyme activity was determined by varying the DXR concentration at 1 mM DOXP and 1 mM NADPH. […] Data points from at least three independent replicates were analyzed by nonlinear regression using GraphPad Prism software. Slopes of changing absorbance values were converted to (μM DOXP)(mg enzyme)^-1 s ^-1 using a NADPH standard curve (data not shown). […] Data points from at least three independent replicates were analyzed as described above.
# [11] = purified recombinant enzyme, mean ± SEM, read-out: S. schleiferi DXR enzyme IC50
molecule,measurement,setting,value
"O=CN(O)CCCP(=O)(O)O [FSM, fosmidomycin]",Ki,S. schleiferi DXR enzyme; competitive with respect to the DOXP substrate,0.29 ± 0.022 µM
same,IC50,S. schleiferi DXR enzyme; [11],0.67 ± 0.06 µM
same,mode of DXR inhibition,S. schleiferi DXR enzyme; with respect to the DOXP substrate,competitive
same,IC50,Escherichia coli,0.29 ± 0.08 µM
same,IC50,Klebsiella pneumoniae,0.81 ± 0.56 µM
same,IC50,Salmonella typhimurium,0.23 ± 0.03 µM
same,IC50,Shigella sonnei,1.16 ± 0.69 µM
same,IC50,Serratia marcescens,0.39 ± 0.02 µM
same,IC50,[1],> 100 µM
same,mechanism-of-action on viable cells,S. schleiferi [2],bacteriostatic
same,mechanism-of-action on viable cells,S. pseudintermedius [3],bacteriostatic
same,increase of intracellular DOXP level,MEP pathway [4],23.8 fold
same,reduction of intracellular CDP-ME level,MEP pathway [4],5.5 fold
same,reduction of intracellular MEcPP level,MEP pathway [4],4.5 fold
same,increase of intracellular DOXP level,MEP pathway [5],34.8 fold
same,reduction of intracellular CDP-ME level,MEP pathway [5],2.6 fold
same,reduction of intracellular MEcPP level,MEP pathway [5],2.4 fold
same,IC50,S. schleiferi [6],0.78 ± 0.13 µM
same,IC50,S. pseudintermedius [7],0.31 ± 0.04 µM
same,inhibition of S. aureus growth,S. aureus,neither FSM nor FR-900098 inhibit S. aureus growth
same,IC50,S. aureus,> 100 µM
same,MIC,"S. schleiferi [8]; read-out: FSM MIC, Parental S. schleiferi",19.8 µM
same,MIC,"S. schleiferi [8]; read-out: FSM MIC, strain SSCH1903, GlpT G99X",719 µM
same,MIC,"S. schleiferi [8]; read-out: FSM MIC, strain SSCH3408, GlpT A267E",500 µM
same,MIC,"S. schleiferi [8]; read-out: FSM MIC, strain SSCH3612, GlpT G99V",688 µM
same,MIC,"S. schleiferi [8]; read-out: FSM MIC, strain SSCH3624 (second line), GlpT A309S",562 µM
same,MIC,"S. schleiferi [8]; read-out: FSM MIC, strain SSCH3624, GlpT G99V",688 µM
same,MIC,"S. schleiferi [8]; read-out: FSM MIC, strain SSCH3717, no GlpT change",> 1500 µM
same,MIC,"S. schleiferi [8]; read-out: FSM MIC, strain SSCH4455, GlpT G298X",> 1500 µM
same,MIC,"S. schleiferi [8]; read-out: FSM MIC, strain SSCH4494, GlpT G99X",750 µM
same,MIC,"S. schleiferi [8]; read-out: FSM MIC, strain SSCH7376, GlpT W148C",438 µM
same,MIC,"S. schleiferi [8]; read-out: FSM MIC, strain SSCH8400, GlpT W161L",469 µM
same,MIC,"S. schleiferi [8]; read-out: FSM MIC, strain SSCH8586, GlpT G99E",> 1500 µM
same,MIC,"S. schleiferi [8]; read-out: FSM MIC, strain SSCH8774, GlpT Q379P",> 1500 µM
same,MIC,"S. pseudintermedius [9]; read-out: FSM MIC, Parental S. pseudintermedius",25.9 µM
same,MIC,"S. pseudintermedius [9]; read-out: FSM MIC, strain SPSE0643, GlpT W301X",1120 µM
same,MIC,"S. pseudintermedius [9]; read-out: FSM MIC, strain SPSE1933, GlpT G99E",875 µM
same,MIC,"S. pseudintermedius [9]; read-out: FSM MIC, strain SPSE2052, GlpT D88Y",1120 µM
same,MIC,"S. pseudintermedius [9]; read-out: FSM MIC, strain SPSE2227, GlpT G135D",1120 µM
same,MIC,"S. pseudintermedius [9]; read-out: FSM MIC, strain SPSE2648, GlpT G99E",1000 µM
same,MIC,"S. pseudintermedius [9]; read-out: FSM MIC, strain SPSE5869, GlpT G135V",938 µM
same,MIC,"S. pseudintermedius [9]; read-out: FSM MIC, strain SPSE6794, GlpT G99E",1250 µM
same,MIC,"S. pseudintermedius [9]; read-out: FSM MIC, strain SPSE6909, GlpT G404D",688 µM
same,MIC,"S. pseudintermedius [9]; read-out: FSM MIC, strain SPSE7104, GlpT G99E",1250 µM
same,MIC,"S. pseudintermedius [9]; read-out: FSM MIC, strain SPSE7724, GlpT G400C",1120 µM
same,MIC,"S. pseudintermedius [9]; read-out: FSM MIC, strain SPSE8628, no GlpT change",1060 µM
same,MIC,"S. pseudintermedius [9]; read-out: FSM MIC, strain SPSE9765, no GlpT change",1250 µM
CC(=O)N(O)C/C=C/P(=O)(OCOC(=O)C(C)(C)C)OCOC(=O)C(C)(C)C [Compound 2],inhibition of purified recombinant S. schleiferi DXR in vitro,"S. schleiferi DXR enzyme; prodrug, uncleaved",poorly inhibit
same,IC50,S. schleiferi DXR enzyme; [11],> 100 µM
same,inhibition of growth of E. coli,Escherichia coli,does not inhibit growth
same,IC50,Escherichia coli,> 1000 µM
same,inhibition of growth of Klebsiella pneumoniae,Klebsiella pneumoniae,does not inhibit growth
same,IC50,Klebsiella pneumoniae,> 100 µM
same,IC50,Salmonella typhimurium,> 100 µM
same,IC50,Shigella sonnei,> 100 µM
same,IC50,Serratia marcescens,> 100 µM
same,IC50,[1],> 100 µM
same,IC50,HepG2 cells,> 100 µM
same,IC50,S. schleiferi [6],0.1 ± 0.01 µM
same,IC50,S. pseudintermedius [7],0.26 ± 0.03 µM
same,IC50,S. aureus,> 100 µM
same,sensitivity of FSM^R glpT mutant S. schleiferi strains (MIC fold change vs WT),S. schleiferi [8],remain sensitive
O=CN(O)C/C=C/P(=O)(O)O [Compound 3],IC50,S. schleiferi DXR enzyme,0.41 ± 0.11 µM
same,IC50,HepG2 cells,> 50 µM
same,IC50,S. schleiferi [6],4.17 ± 0.47 µM
same,IC50,S. pseudintermedius [7],4.31 ± 0.51 µM
same,IC50,S. aureus,> 100 µM
same,sensitivity of FSM^R glpT mutant S. schleiferi strains (MIC fold change vs WT),S. schleiferi [8],cross-resistant
B1,Km,[10],520 ± 80 µM
